Source: patent US20230271950A1, “ANTIBACTERIAL PICOLINAMIDE COMPOUNDS” (University of Notre Dame Du Lac, priority 2020, published 2023)
Values after ≈ are worked out from the molar mass of the structure shown. Where two headings read alike, the source gives them in different places.

What was measured:
C. difficile = experiment: MIC by broth microdilution against C. difficile strains; assay type: cell-based, Clostridioides difficile; conditions: Clostridioides difficile; for MIC: Table 9, read-out: MIC
MRSA (NRS70, NRS119) = experiment: MIC against MRSA strains; assay type: cell-based, Staphylococcus aureus; conditions: Staphylococcus aureus, read-out: MIC
S. aureus ATCC29213 = experiment: MIC against MSSA; assay type: cell-based, Staphylococcus aureus; conditions: Staphylococcus aureus; S. aureus ATCC29213; Table 1; read-out: MIC
E. faecium NCTC7171 = experiment: MIC against E. faecium; assay type: cell-based, Enterococcus faecium; conditions: Enterococcus faecium; E. faecium NCTC7171; Table 1; read-out: MIC
Bacteroides fragilis = experiment: MIC against gut bacterium Bacteroides fragilis; assay type: cell-based; conditions: Bacteroides fragilis, Bacteroides fragilis strain HM-709, read-out: MIC
Bifidobacterium longum = experiment: MIC against gut bacterium Bifidobacterium longum; assay type: cell-based; conditions: Bifidobacterium longum, Bifidobacterium longum strain HM-846, read-out: MIC
Corynebacterium spp. = experiment: MIC against gut bacterium Corynebacterium spp.; assay type: cell-based; conditions: Corynebacterium, Corynebacterium spp. strain HM-784
Fusobacterium nucleatum = experiment: MIC against gut bacterium Fusobacterium nucleatum; assay type: cell-based; conditions: Fusobacterium nucleatum, Fusobacterium nucleatum strain HM-992, read-out: MIC
Lactobacillus reuteri = experiment: MIC against gut bacterium Lactobacillus reuteri; assay type: cell-based
Lactobacillus gasseri = experiment: MIC against gut bacterium Lactobacillus gasseri; assay type: cell-based
Veillonella sp. HM-49 = experiment: MIC against gut bacterium Veillonella sp.; assay type: cell-based
Eubacterium sp. = experiment: MIC against gut bacterium Eubacterium sp.; assay type: cell-based; conditions: Eubacterium, Eubacterium sp. strain HM-178, read-out: MIC
[1] = system: Fecal microbiota preparation; experiment: MIC against fecal microbiota preparation; assay type: cell-based; conditions: Fecal microbiota preparation from OpenBiome tested at 1000-fold dilution
In short: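 Broth microdilution in brucella broth with hemin and vitamin K or supplemented BHIS; MRS broth for lactobacilli, sodium lactate added for Veillonella. Incubation 24 h or 48 h at 37° C anaerobically, except Corynebacterium and Lactobacillus grown aerobically.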

`Cc1ncc([N+](=O)[O-])n1CCO` [MTZ, metronidazole, reference compound] was tested, and the MIC (C. difficile; C. difficile NR-32903) was 0.5 µg/mL (≈ 2.92 µM), the MIC (C. difficile; C. difficile NR-32904) was 0.5 µg/mL (≈ 2.92 µM) and the MIC (C. difficile; C. difficile NR-49277) was 0.5 µg/mL (≈ 2.92 µM). The MIC (C. difficile; C. difficile NR-49278) was 0.5 µg/mL (≈ 2.92 µM), the MIC (C. difficile; C. difficile NR-49279) was 1 µg/mL (≈ 5.84 µM) and the MIC (C. difficile; C. difficile NR-49280) was 1 µg/mL (≈ 5.84 µM). For the same compound, the MIC (C. difficile; C. difficile NR-49281) was 1 µg/mL (≈ 5.84 µM), the MIC (C. difficile; C. difficile NR-49282) was 0.5 µg/mL (≈ 2.92 µM) and the MIC (C. difficile; C. difficile NR-49283) was 0.5 µg/mL (≈ 2.92 µM). The MIC (C. difficile; C. difficile NR-49284) was 0.5 µg/mL (≈ 2.92 µM), the MIC (C. difficile; C. difficile NR-49285) was 0.5 µg/mL (≈ 2.92 µM) and the MIC (C. difficile; C. difficile NR-49286) was 1 µg/mL (≈ 5.84 µM). It also gave an MIC (C. difficile; C. difficile NR-49287) of 0.5 µg/mL (≈ 2.92 µM), an MIC (C. difficile; C. difficile NR-49288) of 0.5 µg/mL (≈ 2.92 µM) and an MIC (C. difficile; C. difficile NR-49289) of 0.5 µg/mL (≈ 2.92 µM). It also gave an MIC (C. difficile; C. difficile NR-49290) of 1 µg/mL (≈ 5.84 µM), an MIC (C. difficile; C. difficile NR-49291) of 1 µg/mL (≈ 5.84 µM) and an MIC (C. difficile; C. difficile NR-49293) of 0.5 µg/mL (≈ 2.92 µM). The MIC (C. difficile; C. difficile NR-49295) was 0.5 µg/mL (≈ 2.92 µM), the MIC (C. difficile; C. difficile NR-49296) was 0.5 µg/mL (≈ 2.92 µM) and the MIC (C. difficile; C. difficile NR-49297) was 0.5 µg/mL (≈ 2.92 µM). For the same compound, the MIC (C. difficile; C. difficile NR-49298) was 1 µg/mL (≈ 5.84 µM), the MIC (C. difficile; C. difficile NR-49299) was 0.5 µg/mL (≈ 2.92 µM) and the MIC (C. difficile; C. difficile NR-49300) was 0.5 µg/mL (≈ 2.92 µM). It also gave an MIC (C. difficile; C. difficile NR-49301) of 0.5 µg/mL (≈ 2.92 µM), an MIC (C. difficile; C. difficile NR-49303) of 0.5 µg/mL (≈ 2.92 µM) and an MIC (C. difficile; C. difficile NR-49304) of 0.5 µg/mL (≈ 2.92 µM). For the same compound, the MIC (C. difficile; C. difficile NR-49306) was 0.5 µg/mL (≈ 2.92 µM), the MIC (C. difficile; C. difficile NR-49307) was 0.5 µg/mL (≈ 2.92 µM) and the MIC (C. difficile; C. difficile NR-49308) was 0.5 µg/mL (≈ 2.92 µM). For the same compound, the MIC (C. difficile; C. difficile NR-49309) was 0.25 µg/mL (≈ 1.46 µM), the MIC (C. difficile; C. difficile NR-49311) was 0.5 µg/mL (≈ 2.92 µM) and the MIC (C. difficile; C. difficile NR-49312) was 0.5 µg/mL (≈ 2.92 µM). It also gave an MIC (C. difficile; C. difficile NR-49313) of 0.5 µg/mL (≈ 2.92 µM), an MIC (C. difficile; C. difficile NR-49314) of 0.5 µg/mL (≈ 2.92 µM) and an MIC (C. difficile; C. difficile NR-49315) of 0.5 µg/mL (≈ 2.92 µM). It also gave an MIC (C. difficile; C. difficile NR-49316) of 0.5 µg/mL (≈ 2.92 µM), an MIC (C. difficile; C. difficile NR-49317) of 0.5 µg/mL (≈ 2.92 µM) and an MIC (C. difficile; C. difficile NR-49319) of 0.5 µg/mL (≈ 2.92 µM). It also gave an MIC (C. difficile; C. difficile NR-49320) of 0.5 µg/mL (≈ 2.92 µM), an MIC (C. difficile; C. difficile NR-49321) of 0.5 µg/mL (≈ 2.92 µM) and an MIC (C. difficile; C. difficile NR-49323) of 0.25 µg/mL (≈ 1.46 µM). The MIC (C. difficile; C. difficile NR-49324) was 0.25 µg/mL (≈ 1.46 µM), the MIC (C. difficile; C. difficile NR-49325) was 0.5 µg/mL (≈ 2.92 µM) and the MIC (C. difficile; C. difficile NR-49326) was 0.5 µg/mL (≈ 2.92 µM). The MIC (C. difficile; C. difficile NR-49327) was 0.5 µg/mL (≈ 2.92 µM), the MIC (C. difficile; C. difficile NR-49328) was 0.25 µg/mL (≈ 1.46 µM) and the MIC (C. difficile; C. difficile NR-49329) was 0.25 µg/mL (≈ 1.46 µM). The MIC50 (C. difficile; 101 C. difficile strains) was 0.5 µg/mL (≈ 2.92 µM), the MIC90 (C. difficile; 101 C. difficile strains, read-out: MIC90 (101 strains)) was 1 µg/mL (≈ 5.84 µM) and the MIC (MRSA (NRS70, NRS119); MRSA NRS70, Table 1) was greater than 128 µg/mL. The MIC (MRSA (NRS70, NRS119); MRSA NRS70, Table 7) was greater than 128 µg/mL, the MIC (MRSA (NRS70, NRS119); MRSA NRS119, Table 1) was greater than 128 µg/mL and the MIC (S. aureus ATCC29213) was greater than 128 µg/mL. It also gave an MIC (E. faecium NCTC7171) greater than 128 µg/mL, an MIC (Bacteroides fragilis; Table 1) of 0.5 µg/mL (≈ 2.92 µM) and an MIC (Bacteroides fragilis; Table 7) of 1 µg/mL (≈ 5.84 µM). It also gave an MIC (Bifidobacterium longum; Table 1) of 0.5 µg/mL (≈ 2.92 µM), an MIC (Bifidobacterium longum; Table 7) of 1 µg/mL (≈ 5.84 µM) and an MIC (Corynebacterium spp.; Table 1) greater than 32 µg/mL. It also gave an MIC (Corynebacterium spp.; Table 7) greater than 32 µg/mL, an MIC (Fusobacterium nucleatum; Table 1) of 2 µg/mL (≈ 11.7 µM) and an MIC (Fusobacterium nucleatum; Table 7) of 2 µg/mL (≈ 11.7 µM). The MIC (Lactobacillus reuteri; Lactobacillus reuteri strain HM-102, Table 7) was greater than 32 µg/mL, the MIC (Lactobacillus reuteri; Limosilactobacillus reuteri, Lactobacillus reuter strain HM-102, Table 1, read-out: MIC) was greater than 32 µg/mL and the MIC (Lactobacillus gasseri; Lactobacillus gasseri strain HM-644, Table 7) was greater than 32 µg/mL. The MIC (Lactobacillus gasseri; Lactobacillus gasseri, Lactobacillus gasser strain HM-644, Table 1, read-out: MIC) was greater than 32 µg/mL, the MIC (Veillonella sp. HM-49; SP.HM49, Veillonella sp. HM-49, Table 1, read-out: MIC) was 2 µg/mL (≈ 11.7 µM) and the MIC (Veillonella sp. HM-49; Veillonella sp. strain HM-49, Table 7) was 2 µg/mL (≈ 11.7 µM). It also gave an MIC (Eubacterium sp.; Table 1) of 1 µg/mL (≈ 5.84 µM), an MIC (Eubacterium sp.; Table 7) of 1 µg/mL (≈ 5.84 µM) and an MIC [1] greater than 128 µg/mL.
